# From patent US12421211B2, “Heterocyclic compounds” (Hoffmann-La Roche Inc., priority 2021, dated 2025)
# Structures can show the parent of a compound that is named as a salt.
# Legend:
# [1] = test system: Acinetobacter baumannii ATCC17978; assay: Minimal Inhibitory Concentration (MIC) assay; type: cell-based; details: Acinetobacter baumannii ATCC17978, CAMHB medium, 20 hours at 35±2° C., visual reading; read-out: MIC AB. ATCC17978
# Method: Minimal Inhibitory Concentration Protocol (MIC) Assay:
# Table 2 provides the in vitro potency of the compounds of present invention obtained against the strain Acinetobacter baumannii ATCC17978, which was assessed by an MIC (Minimal Inhibitory Concentration) assay as follows.
# Test compounds were prepared from 10 mM DMSO stock solutions. The top dose was diluted from 10 mM to 2.5 mM by DMSO, followed by serial 2-fold 11 points dilutions in DMSO in a master plate (Greiner, Cat No: 651201). 2 μL compounds were transferred from the master plate into a new 96-well assay plate (Costar, 3599).
# The growth medium […] Mueller Hinton Broth (CAMHIB) was prepared by adding 22 g powder (BD, 212322) in 1 L purified water, autoclaved, and supplemented with sterilized CaCl2 (20 mg per liter) and MgCl2 (10 mg per liter).
# Vials of each of the test microorganisms were maintained frozen in the vapor phase of a liquid nitrogen freezer. Took out the bacterial strain ATCC 17978 from liquid nitrogen freezer, thawed it at room temperature, and diluted the bacterial in the CAMHB medium to achieve a final inoculum of 2×10^5 CFU/mL. 98 μL of the adjusted bacteria suspension was dispensed to the assay plate and pipetted 5 times.
# Then the assay plates were incubated for 20 hours at 35±2° C. in ambient air with humidity. Following incubation, MIC […] value, the lowest concentration of drug that inhibits visible growth of the microorganism, was recorded by visual judgment of bacterial growth through magnification mirror of MIC reader, and the assay plates were photographed with Qcount system as image raw data. Meanwhile, the D600 of assay plates was recorded with SpectraMax Plus384 as GD raw data.
# [2] = test system: Acinetobacter baumannii ATCC17961; assay: Antimicrobial susceptibility testing: 90% growth inhibitory concentration (IC90) determination; type: cell-based; details: Acinetobacter baumannii, ATCC17961, 16 h, 90% growth inhibitory concentration, Acinetobacter baumannii ATCC17961, Iso-Sensitest broth, OD 600 nm over 16 h; read-out: ATCC 17961 IC90
# In short: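 Growth inhibition derived in log phase from OD600 kinetics (every 20 minutes, 16h, 35±2° C) of ATCC17961 in Iso-Sensitest medium, inoculum ~5×10^5 CFU/ml. Compounds tested as twofold series, 10 points (e.g. 50 to 0.097 μM final); IC90 and IC50 reported.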
SMILES,MIC [1] [µM],IC90 [2] [nM]
"COCCn1nc(C)c(-c2ccc(-c3cnc(C(=O)Nc4ccc(C(=O)N5CCN(C(=O)C[N+]6(C)C[C@@H](O)[C@H](O)C6)CC5)c(Cl)c4)n3C)c(F)c2F)c1C (racemic) [Example C12, N-[3-chloro-4-[4-[2-[(3R,4R)-3,4-dihydroxy-1-methyl-pyrrolidin-1-ium-1-yl]acetyl]piperazine-1-carbonyl]phenyl]-5-[2,3-difluoro-4-[1-(2-methoxyethyl)-3,5-dimethyl-pyrazol-4-yl]phenyl]-1-methyl-imidazole-2-carboxamide; formate]",1.2,153
"CO[C@H]1CCCC[C@@H]1NC(=O)Cn1cc(-c2ccc(-c3cnc(C(=O)Nc4ccc(C(=O)N5CCN(C(=O)C6CC[N+](C)(C)CC6)CC5)c(Cl)c4)n3C)c(F)c2F)c(C)n1 (racemic) [Example G32, N-[3-chloro-4-[4-(1,1-dimethylpiperidin-1-ium-4-carbonyl)piperazine-1-carbonyl]phenyl]-5-[2,3-difluoro-4-[1-[2-[[(1S,2S)-2-methoxycyelohexyl]amino]-2-oxo-ethyl]-3-methyl-pyrazol-4-yl]phenyl]-1-methyl-imidazole-2-carboxamide; formate]",0.66,185
"COCCn1nc(C)c(-c2ccc(-c3cnc(C(=O)Nc4ccc(C(=O)N5CCN(C(=O)C6CC[N+](C)(C)CC6O)CC5)c(Cl)c4)n3C)c(F)c2F)c1C (centres unmarked) [Example D4, N-[3-chloro-4-[4-(3-hydroxy-1,1-dimethyl-piperidin-1-ium-4-carbonyl)piperazine-1-carbonyl]phenyl]-5-[2,3-difluoro-4-[1-(2-methoxyethyl)-3,5-dimethyl-pyrazol-4-yl]phenyl]-1-methyl-imidazole-2-carboxamide; formate]",1.56,178
"COCCn1cc(-c2ccc(-c3cnc(C(=O)Nc4ccc(C(=O)N5CCN(C(=O)C[N+]6(C)CCC(O)(CO)CC6)CC5)c(Cl)c4)n3C)c(F)c2F)c(C)n1 (centres unmarked) [Example D18, N-[3-chloro-4-[4-[2-[4-hydroxy-4-(hydroxymethyl)-1-methyl-piperidin-1-ium-1-yl]acetyl]piperazine-1-carbonyl]phenyl]-5-[2,3-difluoro-4-[1-(2-methoxyethyl)-3-methyl-pyrazol-4-yl]phenyl]-1-methyl-imidazole-2-carboxamide; formate]",1.23,58
"COCCn1ncc(-c2ccc(-c3cnc(C(=O)Nc4ccc(C(=O)N5CCN(C(=O)C6CCNCC6)CC5)c(Cl)c4)n3C)c(Cl)c2F)c1C [Example E4, 5-[2-chloro-3-fluoro-4-[1-(2-methoxyethyl)-5-methyl-pyrazol-4-yl]phenyl]-N-[3-chloro-4-[4-(piperidine-4-carbonyl)piperazine-1-carbonyl]phenyl]-1-methyl-imidazole-2-carboxamide; formic acid]",0.57,
"Cn1c(-c2ccc(-c3cn(C[C@H](O)CO)nc3C(F)(F)F)c(F)c2F)cnc1C(=O)Nc1ccc(C(=O)N2CCN(C(=O)C3CC[N+](C)(C)CC3)CC2)c(Cl)c1 [Example F8, N-[3-chloro-4-[4-(1,1-dimethylpiperidin-1-ium-4-carbonyl)piperazine-1-carbonyl]phenyl]-5-[4-[1-[(2S)-2,3-dihydroxypropyl]-3-(trifluoro-methyl)pyrazol-4-yl]-2,3-difluoro-phenyl]-1-methyl-imidazole-2-carboxamide; formate]",1.41,
"Cn1c(-c2ccc(-c3cn[nH]c3CCCCO)c(F)c2F)cnc1C(=O)Nc1ccc(C(=O)N2CCN(C(=O)C3CC[N+](C)(C)CC3)CC2)c(Cl)c1 [Example F21, N-[3-chloro-4-[4-(1,1-dimethylpiperidin-1-ium-4-carbonyl)piperazine-1-carbonyl]phenyl]-5-[2,3-difluoro-4-[5-(4-hydroxybutyl)-1H-pyrazol-4-yl]phenyl]-1-methyl-imidazole-2-carboxamide; formate]",2.31,
"Cn1c(-c2ccc(-c3cn(CC(N)=O)nc3C(F)(F)F)c(F)c2F)cnc1C(=O)Nc1ccc(C(=O)N2CCN(C(=O)C3CC[N+](C)(C)CC3)CC2)c(Cl)c1 [Example F35, 5-[4-[1-(2-amino-2-oxo-ethyl)-3-(trifluoromethyl)pyrazol-4-yl]-2,3-difluoro-phenyl]-N-[3-chloro-4-[4-(1,1-dimethylpiperidin-1-ium-4-carbonyl)piperazine-1-carbonyl]phenyl]-1-methyl-imidazole-2-carboxamide; formate]",1.24,
"Cc1nn(CC(=O)Nc2ccccc2)cc1-c1ccc(-c2cnc(C(=O)Nc3ccc(C(=O)N4CCN(C(=O)C5CC[N+](C)(C)CC5)CC4)c(Cl)c3)n2C)c(F)c1F [Example G5, 5-[4-[1-(2-anilino-2-oxo-ethyl)-3-methyl-pyrazol-4-yl]-2,3-difluoro-phenyl]-N-[3-chloro-4-[4-(1,1-dimethylpiperidin-1-ium-4-carbonyl)piperazine-1-carbonyl]phenyl]-1-methyl-imidazole-2-carboxamide; formate]",0.32,
"Cc1c(-c2ccc(-c3cnc(C(=O)Nc4ccc(C(=O)N5CCN(C(=O)C6CC[N+](C)(C)CC6)CC5)c(Cl)c4)n3C)c(F)c2F)cnn1CC(=O)Nc1ccccn1 [Example G19, N-[3-chloro-4-[4-(1,1-dimethylpiperidin-1-ium-4-carbonyl)piperazine-1-carbonyl]phenyl]-5-[2,3-difluoro-4-[5-methyl-1-[2-oxo-2-(2-pyridylamino)ethyl]pyrazol-4-yl]phenyl]-1-methyl-imidazole-2-carboxamide; formate]",0.32,
"Cc1nn(CC(=O)NC2CCOC2)cc1-c1ccc(-c2cnc(C(=O)Nc3ccc(C(=O)N4CCN(C(=O)C5CC[N+](C)(C)CC5)CC4)c(Cl)c3)n2C)c(F)c1F (centres unmarked) [Example G20, N-[3-chloro-4-[4-(1,1-dimethylpiperidin-1-ium-4-carbonyl)piperazine-1-carbonyl]phenyl]-5-[2,3-difluoro-4-[3-methyl-1-[2-oxo-2-(tetrahydrofuran-3-ylamino)ethyl]pyrazol-4-yl]phenyl]-1-methyl-imidazole-2-carboxamide; formate]",2.52,
"Cc1nn(CC(=O)NC2CCCCO2)cc1-c1ccc(-c2cnc(C(=O)Nc3ccc(C(=O)N4CCN(C(=O)C5CC[N+](C)(C)CC5)CC4)c(Cl)c3)n2C)c(F)c1F (centres unmarked) [Example G21, N-[3-chloro-4-[4-(1,1-dimethylpiperidin-1-ium-4-carbonyl)piperazine-1-carbonyl]phenyl]-5-[2,3-difluoro-4-[3-methyl-1-[2-oxo-2-(tetrahydropyran-2-ylamino)ethyl]pyrazol-4-yl]phenyl]-1-methyl-imidazole-2-carboxamide; formate]",2.57,
"Cn1c(-c2ccc(-c3cn[nH]c3-c3cscn3)c(F)c2F)cnc1C(=O)Nc1ccc(C(=O)N2CCN(C(=O)C3CC[N+](C)(C)CC3)CC2)c(Cl)c1 [Example I5, N-[3-chloro-4-[4-(1,1-dimethylpiperidin-1-ium-4-carbonyl)piperazine-1-carbonyl]phenyl]-5-[2,3-difluoro-4-(5-thiazol-4-yl-1H-pyrazol-4-yl)phenyl]-1-methyl-imidazole-2-carboxamide; formate]",0.58,
